Test results from EP1189923B1, “AROMATIC AND HETEROCYCLIC DERIVATIVES OF PHYTOSTEROLS AND/OR PHYTOSTANOLS FOR USE IN TREATING OR PREVENTING CARDIOVASCULAR DISEASE” (Forbes Medi-Tech Inc., priority 1999, dated 2000).

Legend:
[1] = tested on: apo E-KO mice; experiment: Plasma triglyceride levels in apo E-KO mice fed experimental diets; format: in vivo; conditions: compounds in diet
[2] = in vivo; cited from earlier work

O=C(O)c1cccnc1 [nicotinic acid]
effect on plasma triglyceride levels [1]: reduced triglyceride levels
elevation of the "good" HDL cholesterol [2]: 20-30%
